These results are taken from patent US6803046B2, “Sincalide formulations” (Bracco International B.V., priority 2002, dated 2004).

Series [1] in a line: Effect of amino acids on sincalide recovery and related impurities. It counts as physicochemical. The following applies: for improvement in sincalide recovery vs control without lysine: lyophilized formulations. The protocol: Experiments were conducted to evaluate several amino acids as potential stabilizers of sincalide, including the non-polar (hydrophobic) methionine residue, aspartic acid and glutamic acid, the polar glycine and cysteine residues, and the basic lysine and arginine amino acids. […]
For comparison to the non-polar amino acid methionine as a potential processing stabilizer, polar amino acids such as glycine and cysteine were also evaluated. Formulations containing these amino acids were exposed to air in open vials and compared to product in closed vials. […] Table 23 presents the sincalide recoveries for experimental formulations containing variable concentrations of methionine, cysteine or glycine. […]

Series [2] in a line: Effect of antioxidants on sincalide formulation stability (HPLC). The following applies: for % Sincalide / % Total Sincalide-Related Impurities: antioxidant 10 μg/mL; for effect of antioxidant on sincalide stability (in words): antioxidant 10 μg/mL in reconstituted sincalide formulation, over 15 hours. The protocol: An experiment was performed to evaluate the addition of antioxidants as stabilizing agents to prevent sincalide oxidation in formulations of sincalide (formulations for Example 4 contained 85 mg/mL mannitol, 0.005 mg/mL TWEEN® 20, 2.75 mg/mL KH2PO4, 1.0 mg/mL DTPA, 2.0 mg/mL methionine, 7.5 mg/mL lysine, 15 mg/mL arginine, 0.0025 mg/mL sincalide (Bulk formulation), except placebos which contained no sincalide.) The formation of sincalide methionine (Met 3 or Met 6) monosulfoxides, desulfated sincalide and unknown degradants was investigated. The effectiveness of sodium metabisulfite, ascorbic acid, cysteine, glutathione, sodium sulfate, benzalkonium chloride, and benzethonium chloride in inhibiting the degradation of sincalide in terms of their effect on sincalide recovery and sincalide-related impurities, was evaluated by HPLC.
The effect of various antioxidants on the stabilization of sincalide was evaluated on open and sealed sincalide formulations over 15 hours. The antioxidants were separately added at a concentration of 10 μg/mL to water-reconstituted lyophilized sincalide formulations containing all formulation ingredients except antioxidant. Spiked and unspiked solutions were pooled, subdivided, and either exposed to or protected from air over 15 hours. The sincalide and total sincalide-related impurities were monitored by reversed-phase HPLC with gradient elution and UV detection at 215 nm to compare the effectiveness of the antioxidants.
To optimize the level of sodium metabisulfite in the formulation, lyophilized sincalide formulations were prepared containing four levels of sodium metabisulfite (0, 10, 30, and 60 μg/vial), as summarized in Table 13. Samples at each concentration were maintained under unstressed and stressed (65 ° C., 64 hours) storage conditions, and were subsequently assayed by HPLC. The “% sincalide” was determined, and the “% (Met 6) monosulfoxide” (tR≈19.7 min.) was monitored as an indication of sincalide oxidation.
Another experiment was conducted under longer-term accelerated storage conditions utilizing a sincalide formulation with the optimized concentration (40 μg/vial) of sodium metabisulfite to confirm the protective effect on the degradation of sincalide. Sincalide lyophilized formulations with and without the antioxidant from the same batch were heat-stressed at 40° C. and 60° C. for 6 weeks. Also, formulations without sincalide from the same batch were heat-stressed at 40° C. for 8 months.

[3] abbreviates: Table 23, bulk formulation, amino acid 2.0 mg/mL Bulk.
Where [4] appears, read: Table 23, bulk formulation, amino acid 2.5 mg/mL Bulk.
Where [5] appears, read: bulk formulation, L-Methionine 0.00 mg/mL Bulk.
The mark [6] stands for this setting: bulk formulation, L-Methionine 0.025 mg/mL Bulk.
[7] abbreviates: bulk formulation, L-Methionine 0.50 mg/mL Bulk.
[8] abbreviates: bulk formulation, L-Methionine 2.0 mg/mL Bulk.

Regarding `NCCCCC(N)C(=O)O` (racemic) [DL-Lysine], the “improvement in sincalide recovery vs control without lysine” value in series [1] (3 weeks storage at 40° C.) stood at 50%; in series [1] (5 weeks storage at 40° C.) it was 75%.
As to `O=C1O[C@H]([C@@H](O)CO)C(O)=C1O` [Ascorbic Acid], the “% Sincalide” value is 98.0% in series [2] (Open, 1 h); 98.0% in series [2] (Open, 8 h); 97.8% in series [2] (Open, 15 h); 98.1% in series [2] (Sealed, 0 h); 98.0% in series [2] (Sealed, 7 h); 97.8% in series [2] (Sealed, 14 h). Further, the “% Total Sincalide-Related Impurities” value is on record as 2.00% in series [2] (Open, 1 h); 2.01% in series [2] (Open, 8 h); 2.16% in series [2] (Open, 15 h); 1.95% in series [2] (Sealed, 0 h); 2.05% in series [2] (Sealed, 7 h); 2.25% in series [2] (Sealed, 14 h).
Turning to `CC(C)(C)CC(C)(C)c1ccc(OCCOCC[N+](C)(C)Cc2ccccc2)cc1` [Benzethonium Chloride], the “effect of antioxidant on sincalide stability (in words)” value in series [2] is “significant destabilizing effect”. In addition, the “% Sincalide” value in series [2] (Open, 1 h) was determined as 92.1%; in series [2] (Open, 8 h), 88.0%; in series [2] (Open, 15 h), 92.6%; in series [2] (Sealed, 0 h) it was 97.9%; in series [2] (Sealed, 7 h), 98.0%; in series [2] (Sealed, 14 h) it was 98.0%. For the same molecule, the “% Total Sincalide-Related Impurities” value in series [2] (Open, 1 h) is 7.93%; in series [2] (Open, 8 h), 12.0%; in series [2] (Open, 15 h), 7.36%; in series [2] (Sealed, 0 h) it was 2.13%; in series [2] (Sealed, 7 h), 1.98%; in series [2] (Sealed, 14 h) it was 1.96%.
As for `N[C@@H](CS)C(=O)O` [Cysteine], the “% Sincalide” value in series [2] (Open, 1 h) came out at 97.8%; in series [2] (Open, 8 h), 97.7%; in series [2] (Open, 15 h), 98.0%; in series [2] (Sealed, 0 h), 98.2%; in series [2] (Sealed, 7 h), 98.1%; in series [2] (Sealed, 14 h), 98.1%. Also, the “% Total Sincalide-Related Impurities” value came out at 2.20% in series [2] (Open, 1 h); 2.32% in series [2] (Open, 8 h); 2.05% in series [2] (Open, 15 h); 1.85% in series [2] (Sealed, 0 h); 1.87% in series [2] (Sealed, 7 h); 1.91% in series [2] (Sealed, 14 h).
As for `N[C@@H](CCC(=O)N[C@@H](CS)C(=O)NCC(=O)O)C(=O)O` [Glutathione], the “% Sincalide” value is reported as 98.1% in series [2] (Open, 1 h); 98.2% in series [2] (Open, 8 h); 97.9% in series [2] (Open, 15 h); 98.1% in series [2] (Sealed, 0 h); 98.3% in series [2] (Sealed, 7 h); 98.2% in series [2] (Sealed, 14 h). Moreover, the “% Total Sincalide-Related Impurities” value in series [2] (Open, 1 h) worked out at 1.94%; in series [2] (Open, 8 h), 1.85%; in series [2] (Open, 15 h), 2.13%; in series [2] (Sealed, 0 h) it was 1.90%; in series [2] (Sealed, 7 h) it was 1.74%; in series [2] (Sealed, 14 h) it was 1.82%.
With `N[C@@H](CS)C(=O)O` [L-Cysteine], in series [1] (setting [3]), the “Related impurities (%), Closed” value came out at 1.0% and the “Related impurities (%), Open” value is 31.0%.
Regarding `NCC(=O)O` [L-Glycine], in series [1] (setting [3]), the “Related impurities (%), Closed” value worked out at 1.1% and the “Related impurities (%), Open” value worked out at 51.1%. For the same molecule, in series [1] (setting [4]), the “Related impurities (%), Closed” value is 1.6% and the “Related impurities (%), Open” value came out at 44.9%.
For `CSCC[C@H](N)C(=O)O` [L-Methionine], the “Related impurities (%), Closed” value in series [1] (setting [3]) amounted to 0.7%; in series [1] (setting [4]), 0.7%; in series [1] (setting [5]), 1.3%; in series [1] (setting [6]), 1.0%; in series [1] (setting [7]), 0.8%; in series [1] (setting [8]), 0.7%. Also, the “Related impurities (%), Open” value is listed as 6.4% in series [1] (setting [3]); 10.5% in series [1] (setting [4]); 52.7% in series [1] (setting [5]); 35.9% in series [1] (setting [6]); 19.3% in series [1] (setting [7]); 15.0% in series [1] (setting [8]).
Take `O=S([O-])S(=O)(=O)[O-].[Na+].[Na+]` [Sodium Metabisulfite]: the “% Sincalide” value in series [2] (Open, 1 h) is recorded as 98.2%; in series [2] (Open, 8 h) it was 98.3%; in series [2] (Open, 15 h), 98.2%; in series [2] (Sealed, 0 h) it was 98.3%; in series [2] (Sealed, 7 h) it was 98.3%; in series [2] (Sealed, 14 h), 98.3%. Further, the “% Total Sincalide-Related Impurities” value in series [2] (Open, 1 h) was 1.76%; in series [2] (Open, 8 h) it was 1.69%; in series [2] (Open, 15 h), 1.79%; in series [2] (Sealed, 0 h), 1.67%; in series [2] (Sealed, 7 h), 1.66%; in series [2] (Sealed, 14 h), 1.73%.
For the molecule `O=S(=O)([O-])[O-].[Na+].[Na+]` [Sodium Sulfate], the “effect of antioxidant on sincalide stability (in words)” value in series [2] was “essentially equivalent to the control formulation”. Also, the “% Sincalide” value in series [2] (Open, 1 h) is 98.3%; in series [2] (Open, 8 h), 98.2%; in series [2] (Open, 15 h), 98.1%; in series [2] (Sealed, 0 h) it was 98.2%; in series [2] (Sealed, 7 h), 98.1%; in series [2] (Sealed, 14 h), 98.2%. The “% Total Sincalide-Related Impurities” value in series [2] (Open, 1 h) stood at 1.70%; in series [2] (Open, 8 h), 1.78%; in series [2] (Open, 15 h), 1.92%; in series [2] (Sealed, 0 h), 1.76%; in series [2] (Sealed, 7 h), 1.90%; in series [2] (Sealed, 14 h), 1.81%.
For the molecule Benzalkonium Chloride, the “% Sincalide” value in series [2] (Open, 1 h) was 82.7%; in series [2] (Open, 8 h), 88.4%; in series [2] (Open, 15 h), 82.9%; in series [2] (Sealed, 0 h), 97.8%; in series [2] (Sealed, 7 h), 97.7%; in series [2] (Sealed, 14 h), 97.4%. Besides, the “% Total Sincalide-Related Impurities” value was 17.3% in series [2] (Open, 1 h); 11.6% in series [2] (Open, 8 h); 17.1% in series [2] (Open, 15 h); 2.21% in series [2] (Sealed, 0 h); 2.34% in series [2] (Sealed, 7 h); 2.58% in series [2] (Sealed, 14 h).
